The target in experiment [1] is T1, human α2A-adrenoceptor (Homo sapiens, UniProt P08913).
T1 sequence (P08913 1-465): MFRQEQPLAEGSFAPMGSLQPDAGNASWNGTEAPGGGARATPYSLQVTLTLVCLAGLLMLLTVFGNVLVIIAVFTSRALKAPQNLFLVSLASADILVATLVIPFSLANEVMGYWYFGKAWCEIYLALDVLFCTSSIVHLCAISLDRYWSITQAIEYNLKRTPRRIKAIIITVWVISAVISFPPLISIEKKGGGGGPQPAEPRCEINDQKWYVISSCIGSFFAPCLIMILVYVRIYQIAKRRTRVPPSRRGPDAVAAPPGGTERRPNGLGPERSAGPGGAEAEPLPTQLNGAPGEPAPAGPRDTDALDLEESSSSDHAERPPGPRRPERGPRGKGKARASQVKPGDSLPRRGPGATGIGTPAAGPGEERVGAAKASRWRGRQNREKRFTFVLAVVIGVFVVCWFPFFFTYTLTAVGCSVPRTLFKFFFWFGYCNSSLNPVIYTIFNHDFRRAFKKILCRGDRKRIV
Description: Competition binding with 3H-rauwolscine, human alpha-2A. Set-up: expressed in transfected cells; host or cells: Shionogi S115 cells (membranes). The following applies: Mean ± SEM, n = 3 unless indicated, membranes of Shionogi S115 cells, read-out: Binding affinity Ki alpha-2A. As for the experimental part: (§1) Binding Affinity Human Alpha-2-adrenoceptor
(§2) The affinity of test compounds for the three human α2-adrenoceptor subtypes (α2A, α2B and α2C) was determined in competition binding assays with ^3H-rauwolscine. The biological material for these experiments consisted of membranes from Shionogi S115 cells stably transfected with either of the three human α2 subtypes (Marjarnaki et al. 1992). Membrane (5-10 μg of total protein per sample) and 1 nM-2 nM ^3H-rauwolscine (specific activity 78 Ci/mrnmol) were incubated in 50 mM KH2PO4, pH 7.5 with 6 concentrations of the compounds. Each concentration was run in duplicate. Nonspecific binding was defined by 100 μM oxymetazoline and corresponded to 5-15% of total binding. After 30 mim at room temperature, incubations were terminated by rapid vacuum filtration through GF/B glass fiber filter and three 5 ml washes with icecold incubation buffer. The filters were then dried, impregnated with scintillate and their radioactivity was measured by scintillation counting. The analysis of the experiments was carried out by nonlineair least square curve fitting. Experimentally determined IC50 values were converted to Ki's by making use of the Cheng-Prusoff equation (Cheng and Prusoff, 1973). Experiments were repeated a minimum of three times.

In experiment [2] the target is T2, human α2B-adrenoceptor (Homo sapiens, UniProt P18089).
T2 sequence (P18089 1-450): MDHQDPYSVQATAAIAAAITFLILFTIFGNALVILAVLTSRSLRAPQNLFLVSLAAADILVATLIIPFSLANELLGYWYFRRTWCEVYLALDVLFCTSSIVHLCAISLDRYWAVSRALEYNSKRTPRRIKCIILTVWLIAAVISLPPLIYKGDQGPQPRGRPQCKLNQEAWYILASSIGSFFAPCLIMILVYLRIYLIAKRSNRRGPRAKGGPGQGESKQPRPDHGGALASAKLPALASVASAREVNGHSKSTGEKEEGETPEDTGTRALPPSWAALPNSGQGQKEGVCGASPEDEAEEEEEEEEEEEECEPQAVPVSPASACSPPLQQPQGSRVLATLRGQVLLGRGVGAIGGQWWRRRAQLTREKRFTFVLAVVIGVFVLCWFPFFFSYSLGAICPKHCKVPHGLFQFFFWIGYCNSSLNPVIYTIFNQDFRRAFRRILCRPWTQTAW
Nature of the experiment: Competition binding with 3H-rauwolscine, human alpha-2B. Set-up: expressed in transfected cells; host or cells: Shionogi S115 cells (membranes). Conditions: Mean ± SEM, n = 3 unless indicated, membranes of Shionogi S115 cells, read-out: Binding affinity Ki alpha-2B. As for the experimental part:
as §1, §2

The target of experiment [3] is T3, human α2C-adrenoceptor (Homo sapiens, UniProt P18825).
T3 sequence (P18825 1-462): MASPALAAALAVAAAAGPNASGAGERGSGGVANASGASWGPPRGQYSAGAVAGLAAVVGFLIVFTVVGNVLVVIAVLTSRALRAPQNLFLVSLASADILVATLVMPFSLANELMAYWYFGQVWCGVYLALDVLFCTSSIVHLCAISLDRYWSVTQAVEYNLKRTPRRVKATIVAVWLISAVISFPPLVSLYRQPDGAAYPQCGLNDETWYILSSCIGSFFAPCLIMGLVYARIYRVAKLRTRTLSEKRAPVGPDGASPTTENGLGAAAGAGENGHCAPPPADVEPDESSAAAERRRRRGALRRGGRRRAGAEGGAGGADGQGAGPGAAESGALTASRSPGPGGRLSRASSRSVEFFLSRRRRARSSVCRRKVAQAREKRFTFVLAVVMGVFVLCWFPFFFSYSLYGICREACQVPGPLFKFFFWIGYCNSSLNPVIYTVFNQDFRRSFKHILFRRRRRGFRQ
Description: Competition binding with 3H-rauwolscine, human alpha-2C. On the set-up: expressed in transfected cells; host or cells: Shionogi S115 cells (membranes). The following applies: Mean ± SEM, n = 3 unless indicated, membranes of Shionogi S115 cells, read-out: Binding affinity Ki alpha-2C. As for the experimental part: as §1, §2

The target of experiment [4] is T1, human α2A-adrenoceptor. Description: Inhibition of epinephrine-stimulated 35S-GTPγS binding, human alpha-2A. Type of experiment: biochemical. Conditions: Mean ± SEM, n minimum three; CHO cell membranes; epinephrine 5 μM; incomplete dose-response curves, KB numbers are minimum estimates; read-out: Antagonist effect KB alpha-2A. The procedure:
(§3) Antagonist Activity on Human a2-adrenoceptor Subtypes
(§4) Membranes (2-6 μg of protein per samnple) and 12 concentrations of test compound were preincubated for 30 min with a fixed concentration fo epinephrine (5 μM for α2A, 15 μM for α2B, 5 μM for α2C) in 50 mM Tris, 5 mM MgCl2, 150 mM NaCl, 1 mM DTT,
(§5) 1 mM EDTA, 10 μuM GDP, 30 μM ascoerbic acid, pH 7.4 at room temperature. Binding of radiolabel was started by the addition of trace amounts of ^35S-GTPγS (0.08 nM-0.15 nM, specific activity 1250 Ci/mmol) to the incubation mixture. After an additional 60 min at room temperature, the incubation was terminated by rapid vacuum filtration through glass fiber filter. Filters were washed three times with 5 ml icecold wash buffer (20 mM Tris, 5 mM MgCl2, 1 mM EDTA pH 7.4 at room temperature), dried and counted for radioactivity in a scintiallation counter. Analysis of experiments was carried out by nonlinear least square fitting. Experiments were repeated at least three times.

The target in experiment [5] is T2, human α2B-adrenoceptor. Nature of the experiment: Inhibition of epinephrine-stimulated 35S-GTPγS binding, human alpha-2B. It is filed as biochemical. Conditions: Mean ± SEM, n minimum three; CHO cell membranes; epinephrine 15 μM; read-out: Antagonist effect KB alpha-2B. The procedure:
as §3, §4, §5
In general terms: Binding of GTPγS marks nucleotide exchange on a G protein.

Experiment [6] has as its target T3, human α2C-adrenoceptor. Nature of the experiment: Inhibition of epinephrine-stimulated 35S-GTPγS binding, human alpha-2C. Type of experiment: biochemical. The following applies: Mean ± SEM, n minimum three; CHO cell membranes; epinephrine 5 μM; incomplete dose-response curves, KB numbers are minimum estimates; read-out: Antagonist effect KB alpha-2C. The procedure: as §3, §4, §5

For experiment [7], the target named is rat neocortical α1-adrenoceptors. Nature of the experiment: Competition binding with 3H-prazosin, rat neocortex membranes. The following applies: concentrations of up to 30 μM. The procedure: Binding Affinity Rat Cortical α1-adrenoceptor
The affinity for rat neocortical α1-adrenoceptors was determined in competition binding assays with ^3H-prazosin. The biological material for these assays consisted of membranes from rat neocortex. Membrane suspensions (100-200 μg of total protein per sample) and 0.2 nM-0.25 nM of ^3H-prazosin (specific activity 74 Ci/mmol) were incubated with 6 concentrations of compounds in a total volume of 0.25 ml (50 mM Tris pH 7.7 at 25° C). Each concentration was run in duplicate. Nonspecific binding was defined by 10 μM phentolamine methanesulfonate and corresponded to 25-30% of total binding. After 30 min at room temperature, incubations was terminated by rapid filtration through GF/B glass-fiber filter mats and three washes with ice-cold 10 mM Tris (pH 7.7 at 4° C.). After drying, a solid scintillate was melted onto the filter mats, and their radioactivity was measured by scintillation counting.

Data on five compounds can be found in patent US6521632B2, “Method for the treatment or prevention of a disease mediated by the alpha-2B-adrenoceptor” (Oy Juvantia Pharma LTD, priority 2000, dated 2003).

With `Cc1cc(C)nc(NS(=O)(=O)c2ccc(NC(=O)/C=C/c3ccc(F)cc3)cc2)n1` [D], the Ki – broadly, a measure of affinity in units of concentration, obtained from inhibition or displacement – was over 30 µM at human α2A-adrenoceptor [1], 0.53 ± 0.09 µM on human α2B-adrenoceptor [2] and over 30 µM on human α2C-adrenoceptor [3].
As for `Cc1cc(C)nc(NS(=O)(=O)c2ccc(NCc3nc4ccccc4n3C)cc2)n1` [B], the Kb – broadly, the affinity of an antagonist, worked out from how it opposes an agonist – at human α2A-adrenoceptor [4] was over 10 µM; at human α2B-adrenoceptor [5], 0.25 ± 0.08 µM; on human α2C-adrenoceptor [6], over 10 µM. For the same compound, the Ki at human α2A-adrenoceptor [1] is over 30 µM; at human α2B-adrenoceptor [2], 0.215 ± 0.06 µM; at human α2C-adrenoceptor [3], over 30 µM.
Turning to `CCn1c(CNc2ccc(S(=O)(=O)Nc3nc(C)cc(C)n3)cc2)nc2ccccc21` [A], the IC50 – broadly, the concentration needed to halve the response being measured – in experiment [7] (read-out: IC50, displacement of 3H-prazosin) is over 30 µM. Also, the Ki in experiment [7] (read-out: Ki, displacement of 3H-prazosin) was over 30 µM; on human α2A-adrenoceptor [1], 4.1 ± 0.2 µM; at human α2B-adrenoceptor [2] it was 0.03 ± 0.004 µM; at human α2C-adrenoceptor [3] it was over 4.7 µM. Besides, the values for the Kb at human α2A-adrenoceptor [4], at human α2B-adrenoceptor [5] and on human α2C-adrenoceptor [6] were 2.4 ± 0.7 µM, 0.073 ± 0.023 µM and 2.4 ± 0.9 µM, respectively.
In the case of `Cc1cc(C)nc(NS(=O)(=O)c2ccc(NC(=O)COc3ccccc3)cc2)n1` [E], the Ki at human α2A-adrenoceptor [1] is over 100 µM; on human α2B-adrenoceptor [2] it was 2.9 ± 0.3 µM; on human α2C-adrenoceptor [3], over 100 µM.
Consider `CCOc1ccc(C(=O)Nc2ccc(S(=O)(=O)Nc3nc(C)cc(C)n3)cc2)cc1` [C], for which the Ki on human α2A-adrenoceptor [1] is over 30 µM; at human α2B-adrenoceptor [2], 1.86 µM; on human α2C-adrenoceptor [3] it was over 30 µM.
